Target: Glutamate carboxypeptidase 2 (Homo sapiens, UniProt Q04609)
Sequence (Q04609 whole entry): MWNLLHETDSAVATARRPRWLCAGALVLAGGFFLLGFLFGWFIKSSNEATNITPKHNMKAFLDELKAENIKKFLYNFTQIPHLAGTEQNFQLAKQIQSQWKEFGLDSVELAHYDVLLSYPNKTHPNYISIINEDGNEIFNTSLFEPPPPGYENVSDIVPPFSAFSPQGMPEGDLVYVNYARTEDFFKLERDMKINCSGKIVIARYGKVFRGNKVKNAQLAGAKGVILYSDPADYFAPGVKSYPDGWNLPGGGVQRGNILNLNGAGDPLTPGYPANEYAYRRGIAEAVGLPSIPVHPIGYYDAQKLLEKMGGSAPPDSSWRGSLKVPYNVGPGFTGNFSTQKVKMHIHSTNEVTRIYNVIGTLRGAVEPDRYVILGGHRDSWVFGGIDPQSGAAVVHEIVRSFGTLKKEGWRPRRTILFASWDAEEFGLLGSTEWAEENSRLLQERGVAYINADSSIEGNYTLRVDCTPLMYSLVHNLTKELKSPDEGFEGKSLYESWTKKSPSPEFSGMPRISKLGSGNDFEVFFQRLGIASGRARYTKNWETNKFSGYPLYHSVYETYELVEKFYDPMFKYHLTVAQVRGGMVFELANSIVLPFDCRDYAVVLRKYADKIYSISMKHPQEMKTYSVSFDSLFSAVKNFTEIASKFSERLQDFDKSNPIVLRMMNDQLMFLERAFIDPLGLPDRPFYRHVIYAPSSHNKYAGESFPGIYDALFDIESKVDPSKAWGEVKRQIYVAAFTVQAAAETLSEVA
Description: Inhibition of human recombinant glutamate carboxypeptidase 2 by radioenzymatic assay

Compound | IC50
N[C@@H](CCC(=O)O)C(=O)O [GLUTAMIC ACID] | 428 µM
N[C@@H](COP(=O)(O)O)C(=O)O [DEXFOSFOSERINE] | 523 µM
N[C@@H](Cn1ccc(=O)[nH]c1=O)C(=O)O [(S)-WILLARDIINE] | 67 µM
N[C@@H](Cn1oc(=O)[nH]c1=O)C(=O)O [QUISQUALATE] | 9.5 µM

Source: ChEMBL document CHEMBL1145419, “Structural insight into the pharmacophore pocket of human glutamate carboxypeptidase II” (J Med Chem, 2007)
